Converted amounts (≈) assume the structure as drawn.
How the values were obtained:
Assay type in all cases: functional
Streptococcus pneumoniae = assay: Antimicrobial activity against Streptococcus pneumoniae
Enterococcus faecium = assay: Antimicrobial activity against Enterococcus faecium UC12712
Moraxella catarrhalis = assay: Antimicrobial activity against Moraxella catarrhalis
Haemophilus influenzae = assay: Antimicrobial activity against Haemophilus influenzae
Staphylococcus aureus = assay: Antimicrobial activity against Staphylococcus aureus

Row | MIC (Streptococcus pneumoniae) | MIC (Enterococcus faecium) | MIC (Moraxella catarrhalis) | MIC (Haemophilus influenzae) | MIC (Staphylococcus aureus) | SMILES
1 | 1 µg/mL (≈ 2.48 µM) | 2 µg/mL (≈ 4.96 µM) | 4 µg/mL (≈ 9.92 µM) | 4 µg/mL (≈ 9.92 µM) | 2 µg/mL (≈ 4.96 µM) | CC(=O)NC[C@H]1CN(c2cc(F)c(N3CCS(=O)(=O)CC3)c(F)c2)C(=O)O1
2 | 0.5 µg/mL (≈ 1.3 µM) | 2 µg/mL (≈ 5.2 µM) | 2 µg/mL (≈ 5.2 µM) | 4 µg/mL (≈ 10.4 µM) | 2 µg/mL (≈ 5.2 µM) | CC(=O)NC[C@H]1CN(c2ccc(C3CCS(=O)(=O)CC3)c(F)c2)C(=O)O1
3 | 0.5 µg/mL (≈ 1.11 µM) | 1 µg/mL (≈ 2.21 µM) | 2 µg/mL (≈ 4.42 µM) | 2 µg/mL (≈ 4.42 µM) | 2 µg/mL (≈ 4.42 µM) | O=C(NC[C@H]1CN(c2ccc(N3C=CS(=O)(=O)CC3)c(F)c2)C(=O)O1)C(Cl)Cl
4 | 1 µg/mL (≈ 2.49 µM) | 2 µg/mL (≈ 4.98 µM) | 4 µg/mL (≈ 9.97 µM) | 8 µg/mL (≈ 19.9 µM) | 4 µg/mL (≈ 9.97 µM) | O=C(NC[C@H]1CN(c2ccc(N3C=CS(=O)(=O)CC3)cc2)C(=O)O1)C(F)F
5 | 1 µg/mL (≈ 2.39 µM) | 2 µg/mL (≈ 4.78 µM) | 4 µg/mL (≈ 9.56 µM) | 4 µg/mL (≈ 9.56 µM) | 2 µg/mL (≈ 4.78 µM) | O=C(NC[C@H]1CN(c2ccc(C3C=CS(=O)(=O)CC3)c(F)c2)C(=O)O1)C(F)F (stereo partly drawn)
6 | 1 µg/mL (≈ 2.74 µM) | 4 µg/mL (≈ 11 µM) | 8 µg/mL (≈ 22 µM) | 8 µg/mL (≈ 22 µM) | 4 µg/mL (≈ 11 µM) | CC(=O)NC[C@H]1CN(c2ccc(C3C=CS(=O)(=O)CC3)cc2)C(=O)O1 (stereo partly drawn)
7 | 0.5 µg/mL (≈ 1.19 µM) | 2 µg/mL (≈ 4.77 µM) | 4 µg/mL (≈ 9.54 µM) | 4 µg/mL (≈ 9.54 µM) | 4 µg/mL (≈ 9.54 µM) | O=C(NC[C@H]1CN(c2ccc(N3C=CS(=O)(=O)CC3)c(F)c2)C(=O)O1)C(F)F
8 | 1 µg/mL (≈ 2.5 µM) | 2 µg/mL (≈ 4.99 µM) | 8 µg/mL (≈ 20 µM) | 8 µg/mL (≈ 20 µM) | 4 µg/mL (≈ 9.99 µM) | CC(=O)NC[C@H]1CN(c2cc(F)c(C3C=CS(=O)(=O)CC3)c(F)c2)C(=O)O1 (stereo partly drawn)
9 | 0.5 µg/mL (≈ 1.15 µM) | 1 µg/mL (≈ 2.3 µM) | 2 µg/mL (≈ 4.6 µM) | 8 µg/mL (≈ 18.4 µM) | 2 µg/mL (≈ 4.6 µM) | O=C1O[C@@H](C/N=C(/S)C(F)F)CN1c1ccc(C2C=CS(=O)(=O)CC2)c(F)c1 (stereo partly drawn)
10 | 0.25 µg/mL (≈ 0.551 µM) | 0.25 µg/mL (≈ 0.551 µM) | 2 µg/mL (≈ 4.41 µM) | 4 µg/mL (≈ 8.82 µM) | 1 µg/mL (≈ 2.21 µM) | O=C1O[C@@H](C/N=C(/S)C(F)F)CN1c1cc(F)c(N2C=CS(=O)(=O)CC2)c(F)c1
11 | 0.5 µg/mL (≈ 1.3 µM) | 2 µg/mL (≈ 5.22 µM) | 2 µg/mL (≈ 5.22 µM) | 4 µg/mL (≈ 10.4 µM) | 4 µg/mL (≈ 10.4 µM) | CC(=O)NC[C@H]1CN(c2ccc(N3C=CS(=O)(=O)CC3)c(F)c2)C(=O)O1
12 | 1 µg/mL (≈ 2.61 µM) | 2 µg/mL (≈ 5.23 µM) | 2 µg/mL (≈ 5.23 µM) | 8 µg/mL (≈ 20.9 µM) | 4 µg/mL (≈ 10.5 µM) | CC(=O)NC[C@H]1CN(c2ccc(C3C=CS(=O)(=O)CC3)c(F)c2)C(=O)O1 (stereo partly drawn)
13 | 0.5 µg/mL (≈ 1.06 µM) | 1 µg/mL (≈ 2.13 µM) | 4 µg/mL (≈ 8.51 µM) | 4 µg/mL (≈ 8.51 µM) | 4 µg/mL (≈ 8.51 µM) | O=C(NC[C@H]1CN(c2cc(F)c(N3C=CS(=O)(=O)CC3)c(F)c2)C(=O)O1)C(Cl)Cl
14 | 0.5 µg/mL (≈ 1.11 µM) | 2 µg/mL (≈ 4.43 µM) | 2 µg/mL (≈ 4.43 µM) | 4 µg/mL (≈ 8.86 µM) | 2 µg/mL (≈ 4.43 µM) | O=C(NC[C@H]1CN(c2ccc(C3C=CS(=O)(=O)CC3)c(F)c2)C(=O)O1)C(Cl)Cl (stereo partly drawn)
15 | 1 µg/mL (≈ 2.5 µM) | 4 µg/mL (≈ 9.99 µM) | 4 µg/mL (≈ 9.99 µM) | 8 µg/mL (≈ 20 µM) | 4 µg/mL (≈ 9.99 µM) | O=C(NC[C@H]1CN(c2ccc(C3C=CS(=O)(=O)CC3)cc2)C(=O)O1)C(F)F (stereo partly drawn)
16 | 0.5 µg/mL (≈ 1.15 µM) | 2 µg/mL (≈ 4.62 µM) | 4 µg/mL (≈ 9.23 µM) | 4 µg/mL (≈ 9.23 µM) | 2 µg/mL (≈ 4.62 µM) | O=C(NC[C@H]1CN(c2ccc(C3C=CS(=O)(=O)CC3)cc2)C(=O)O1)C(Cl)Cl (stereo partly drawn)
17 | 0.5 µg/mL (≈ 1.2 µM) | 2 µg/mL (≈ 4.8 µM) | 4 µg/mL (≈ 9.6 µM) | 8 µg/mL (≈ 19.2 µM) | 2 µg/mL (≈ 4.8 µM) | O=C1O[C@@H](C/N=C(/S)C(F)F)CN1c1ccc(C2C=CS(=O)(=O)CC2)cc1 (stereo partly drawn)
18 | 0.5 µg/mL (≈ 1.15 µM) | 1 µg/mL (≈ 2.3 µM) | 4 µg/mL (≈ 9.19 µM) | 4 µg/mL (≈ 9.19 µM) | 1 µg/mL (≈ 2.3 µM) | O=C1O[C@@H](C/N=C(/S)C(F)F)CN1c1ccc(N2C=CS(=O)(=O)CC2)c(F)c1
19 | 1 µg/mL (≈ 2.29 µM) | 2 µg/mL (≈ 4.58 µM) | 8 µg/mL (≈ 18.3 µM) | 8 µg/mL (≈ 18.3 µM) | 2 µg/mL (≈ 4.58 µM) | O=C(NC[C@H]1CN(c2cc(F)c(C3C=CS(=O)(=O)CC3)c(F)c2)C(=O)O1)C(F)F (stereo partly drawn)
20 | 0.5 µg/mL (≈ 1.11 µM) | 2 µg/mL (≈ 4.42 µM) | 4 µg/mL (≈ 8.84 µM) | 16 µg/mL (≈ 35.4 µM) | 1 µg/mL (≈ 2.21 µM) | O=C1O[C@@H](C/N=C(/S)C(F)F)CN1c1cc(F)c(C2C=CS(=O)(=O)CC2)c(F)c1 (stereo partly drawn)
21 | 0.5 µg/mL (≈ 1.07 µM) | 2 µg/mL (≈ 4.26 µM) | 4 µg/mL (≈ 8.52 µM) | 8 µg/mL (≈ 17 µM) | 2 µg/mL (≈ 4.26 µM) | O=C(NC[C@H]1CN(c2cc(F)c(C3C=CS(=O)(=O)CC3)c(F)c2)C(=O)O1)C(Cl)Cl (stereo partly drawn)
22 | 0.5 µg/mL (≈ 1.14 µM) | 1 µg/mL (≈ 2.29 µM) | 4 µg/mL (≈ 9.15 µM) | 4 µg/mL (≈ 9.15 µM) | 4 µg/mL (≈ 9.15 µM) | O=C(NC[C@H]1CN(c2cc(F)c(N3C=CS(=O)(=O)CC3)c(F)c2)C(=O)O1)C(F)F
23 | 0.5 µg/mL (≈ 1.25 µM) | 1 µg/mL (≈ 2.49 µM) | 4 µg/mL (≈ 9.97 µM) | 8 µg/mL (≈ 19.9 µM) | 2 µg/mL (≈ 4.98 µM) | CC(=O)NC[C@H]1CN(c2cc(F)c(N3C=CS(=O)(=O)CC3)c(F)c2)C(=O)O1
24 | 0.5 µg/mL (≈ 1.2 µM) | 1 µg/mL (≈ 2.4 µM) | 4 µg/mL (≈ 9.58 µM) | 4 µg/mL (≈ 9.58 µM) | 2 µg/mL (≈ 4.79 µM) | O=C1O[C@@H](C/N=C(/S)C(F)F)CN1c1ccc(N2C=CS(=O)(=O)CC2)cc1
25 | 0.5 µg/mL (≈ 1.15 µM) | 2 µg/mL (≈ 4.61 µM) | 2 µg/mL (≈ 4.61 µM) | 2 µg/mL (≈ 4.61 µM) | 4 µg/mL (≈ 9.21 µM) | O=C(NC[C@H]1CN(c2ccc(N3C=CS(=O)(=O)CC3)cc2)C(=O)O1)C(Cl)Cl

Row | SMILES | MIC (Streptococcus pneumoniae) | MIC (Enterococcus faecium) | MIC (Moraxella catarrhalis) | MIC (Haemophilus influenzae) | MIC (Staphylococcus aureus)
26 | CC(=O)NC[C@H]1CN(c2ccc(N3CCOCC3)c(F)c2)C(=O)O1 [LINEZOLID] |  | 4 µg/mL (≈ 11.9 µM) | 8 µg/mL (≈ 23.7 µM) | 16 µg/mL (≈ 47.4 µM) | 

Reference: ChEMBL document CHEMBL1138099, “Synthesis and structure-activity studies of antibacterial oxazolidinones containing dihydrothiopyran or dihydrothiazine C-rings” (2006)
